The values below come from US12226410B2, “Methods for enhancing cellular clearance of pathological molecules via activation of the cellular protein ykt6” (NORTHWESTERN UNIVERSITY, priority 2019, dated 2025).

Assay [1] has as its system a-syn. Put plainly: FTI treatment of wild-type mice: a-syn levels in cortex. Type of assay: in vivo. To be noted: daily i.p. 0.9 mg/kg, 14 days. The protocol:
(§1) FIGS. 15A, 15B, 15C, 15D, 15E, and 15F. FTI treatment of wild-type mice enhances ykt6 SNARE complexes, lysosomal activity, and reduces a-syn. 15A) Wild-type mice (C57Bl/6) were i.p. injected daily with FTI for 14 days at 0.9 mg/kg and compared to vehicle injected mice. Extracts from the cortex were analyzed for cytosolic (cyt) and membrane (mem) distribution of ykt6 (veh, n=5; FTI, n=6). 15B) Representative gel filtration/western blot analysis of cortical extracts of veh or FTI injected wild-type mice. Inputs are shown on the left. NSE indicates equal column loading. 15C) Quantification of ykt6 and STX5 complexes (ca. 120A) from gel filtration analysis in C (n=4 mice). Fraction 1 corresponds to complexes at 120A, while fractions 7-9 correspond to ykt6 monomers at 22-14 A. 15D) The levels of post ER (endo H resistant) GCase were analyzed by western blot and post ER/ER ratios were quantified from the cortex of FTI treated mice (veh, n=5; FTI, n=6). 15E) GCase activity was assessed in cortical lysates and normalized to total protein (veh, n=4; FTI, n=6). 15F) a-Syn levels were quantified from cytosolic or membrane isolated fractions from the cortex of wild-type FTI treated mice (veh, n=4; FTI, n=6). For all quantifications, values are the mean+/−SEM, *p<0.05.
Treatment of C57Bl/6 and DASYN53 mice with farnesyltransferase inhibitors. […]

In assay [2] the test system is ykt6. The assay is described as follows: FTI treatment of wild-type mice: ykt6 membrane distribution and SNARE complexes in cortex. Type of assay: in vivo. To be noted: daily i.p. 0.9 mg/kg, 14 days. The protocol:
as §1
Separation of lysates into cytosol and membrane fractions. Cell cultures from either a 10 cm dish (SH-SY5Y) or 6 well (iPSn) were scraped in cold PBS and pelleted by centrifugation at 400×g, 5 min, 4° C. The supernatant was discarded and cell pellets were homogenized in 200-400 ul of cold PBS containing protease inhibitor cocktail mix (1 mM phenylmethanesulfonyl fluoride (PMSF), 50 mM NaF, 2 mM Na orthovanadate, and a protease inhibitor cocktail (Roche diagnostics, http://www.roche.com, #11-836-170-001)) using a Teflon homogenizer in a conical glass vessel for 20-40 times, using a motor driven spindle at 4000 rpm (GlasCol, https://glascol.com/homogenizers). […] Fractions were then analyzed by western blot analysis as described below. The samples were not analyzed in a blinded manner. […]

Molecules are shown by their SMILES.

Turning to `C#Cc1cccc(-c2cc(=O)n(C)c3ccc([C@](O)(c4ccc(Cl)cc4)c4cncn4C)cc23)c1` [LNK-754], the a-syn levels entry in assay [1] is given as “reduced a-syn levels”. For the same compound, in assay [2], the “levels of membrane associated ykt6 and STX5” value is “increase the levels of membrane associated ykt6 and STX5”; the sec22b result is “no change”; the “ykt6 distribution by SEC (monomers vs complexes)” value is on record as “shifted its distribution from monomers into high molecular weight complexes”.
